Measured values: patent US20140088056A1, “CARDIAC GLYCOSIDES ARE POTENT INHIBITORS OF INTERFERON-BETA GENE EXPRESSION” (priority 2010, published 2014)
Like-named read-outs stand apart in the source and are kept apart here. Marks after values point to notes of the source that are not given here.

Assays:
293T cells [1] = assay: Western blot analysis of apoptosis and autophagy; type: cell-based, human; details: 8 hours, bufalin 1 nM to 10 μM, staurosporine 4 μM; for induction of LC3B-II (marker of autophagy): BFA 100 nM
Description: (§1) The cells were also exposed to 0.1% Triton X-100 for 1 hr before the viability assay as a control (FIG. 16E). Data represent mean values±s.d. (n=3). […] Cells were harvested and washed, then stained with Allophycocyanin (APC) conjugated Annexin V and 7-AAD for 15 minutes and subjected to flow cytometry analysis. The number in each graph is the percentile of Annexin V or 7-AAD positive populations. […] Total protein lysates were prepared and separated on SDS-PAGE for Western blot analysis of PARP1, cleaved PARP1, cleaved Caspase3, LC3B, ATP1a1, and beta-actin expression.
Apoptosis and autophagy were also analyzed by Western blots. […] Total protein lysates were prepared and separated on SDS-PAGE for Western blot analysis of PARP1, cleaved PARP1, cleaved Caspase3, LC3B, ATP1a1, and beta-actin expression.

IFNβ promoter = assay: cells; type: cell-based, human; details: for effect of ion-channel ligands on IFNβ reporter: increasing concentrations; for IC50: Homo sapiens, HEK-293T, read-out: IC50 for inhibition of virus induced IFNβ expression
Description: 293T cells were transfected with the IFNβ promoter driving a firefly luciferase reporter together a reference renilla luciferase reporter plasmid. […] Firefly luciferase activities were measured after another 24 hrs and normalized to that of renilla activities.
293T cells were transfected with an IFNβ promoter driving luciferase reporter, 24 hrs later, increasing amounts (10 nM to 10 uM) of Ouabain (FIG. 8A) or digoxin (FIG. 8B) were added to cells before the Sendai virus infection. Luciferase activities were measured one day later.
Approximately 40,000 293T cells were seeded in a 96 well plate, and co-transfected with IFNβ-110 firefly luciferase reporter and renilla luciferase plasmids (Fitzgerald, K. A. et al. IKKepsilon and TBK1 are essential components of the IRF3 signaling pathway. Nat Immunol 4, 491-6 (2003)). After 24 hrs, cells were treated with various chemicals at the indicated concentrations, and sendai virus infection was initiated one hour later. After another 24 hrs, cells were lysed and subjected to Dual-Glo luciferase assay analysis (Promega) with an Analyst AD plate reader.
Human 293T cells were transfected with the IFNβ promoter driving the expression of luciferase construct. The cells were treated with a library of chemical compounds, and sendai virus (SeV) infection initiated one hour later. Luciferase activity was measured after another 24 hrs of culture. Signals were normalized to the samples not treated with chemicals.

endogenous IFNβ gene = assay: RT-PCR of virus induced endogenous IFNβ gene in 293T cells treated with ion-channel modulators; type: cell-based, human; details: 10 uM, 6 hrs
Description: 293T cells were treated with 10 uM of nimodipine, diazoxide or phenamil 30 min before Sendai virus infection, 6 hrs later total RNA were extracted and the expression of various genes were analyzed by RT-PCR.
Since the major function of the pump is to maintain the cellular ion homeostasis, the inventors reasoned that it might be possible to inhibit or stimulate IFNβ induction by varying the intracellular ion concentration. The inventors thus performed luciferase reporter assays with an ion-channel ligand library, which contains various modulators for sodium, potassium, calcium and chloride channels. The experiments were conducted similarly to the initial screening assays: 293T cells were transfected with reporter plasmid, then chemical ligands were added before starting virus infection, and luciferase activity measured after another 24 hrs.

TNF signaling = details: Yang et al.; blocks TRADD recruitment, inhibits IKBα degradation; cited from earlier work
293T cells [2] = assay: Flow cytometry analysis of apoptosis (Annexin V / 7-AAD); type: cell-based, human; details: bufalin 1 μM 8 hours; staurosporine 4 μM 4 hours
Description: as §1
Treated cells and untreated control cells were harvested and washed with PBS, and stained with APC conjugated Annexin V and 7-AAD (both from BD Biosciences) in Annexin V binding buffer (10 mM HEPES, pH 7.4, 140 mM NaCl, 2.5 mM CaCl2) for 15 minutes at room temperature, and then subjected to flow cytometry analysis on a FACSCalibur (BD Biosciences).
Cells were harvested and washed, then stained with Allophycocyanin (APC) conjugated Annexin V and 7-AAD for 15 minutes and subjected to flow cytometry analysis. […] 11 for sturosporine.

For `CO/C1=C\C(C)=C\[C@@H](C)[C@@H](O)[C@@H](C)C/C(C)=C/C=C/[C@H](OC)[C@@H]([C@@H](C)[C@@H](O)[C@H](C)[C@@]2(O)C[C@@H](O)[C@H](C)[C@@H](C(C)C)O2)OC1=O` [BFA, bafilomycin A1], the “induction of LC3B-II (marker of autophagy)” value (293T cells [1]) was “induced”.
For `O=C(Nc1cccc(Nc2cc(Nc3cccc(C(F)(F)F)c3)ncn2)c1)C1CC1` [EGF receptor inhibitor], the “Inhibition % @ 10 μM of virus induced IFNβ expression” value (“Inhibition % @ 10 μM” for short) (IFNβ promoter; chemical library screen) was 38.5%.
With `CC#CC(=O)Nc1cc2c(Nc3ccc(F)c(Cl)c3)ncnc2cn1` [EGFR/ErbB-2/ErbB-4 Inhibitor] the “Inhibition % @ 10 μM” value (IFNβ promoter; chemical library screen) was 20.6%.
With `Cn1c2ccccc2c2c3c(c4c5ccccc5n(CCC#N)c4c21)CNC3=O` [Go 6976] the “Inhibition % of virus induced IFNβ expression” value (IFNβ promoter; tested at 3 μM, chemical library screen) was 55.9* %.
With `O=C(Nc1ccc([N+](=O)[O-])cc1O)Nc1ccccc1Br` [SB 225002] the “Inhibition % @ 10 μM” value (IFNβ promoter; chemical library screen) was 50.8%.
In the case of `CC1=NS(=O)(=O)c2cc(Cl)ccc2N1` [diazoxide, Diazoxide], the “virus induced expression of the endogenous IFNβ gene” value (endogenous IFNβ gene) is reported as “similarly inhibited” and the “effect of ion-channel ligands on IFNβ reporter” value (IFNβ promoter) is reported as “more inhibition”.
For `C[C@H]1O[C@@H](O[C@H]2[C@@H](O)C[C@H](O[C@H]3[C@@H](O)C[C@H](O[C@H]4CC[C@@]5(C)[C@H](CC[C@@H]6[C@@H]5CC[C@]5(C)[C@@H](C7=CC(=O)OC7)CC[C@]65O)C4)O[C@@H]3C)O[C@@H]2C)C[C@H](O)[C@@H]1O` [digitoxin], the TNF signaling (TNF signaling) is listed as “inhibit”.
For `C[C@H]1O[C@@H](O[C@H]2[C@@H](O)C[C@H](O[C@H]3[C@@H](O)C[C@H](O[C@H]4CC[C@@]5(C)[C@H](CC[C@@H]6[C@@H]5C[C@@H](O)[C@]5(C)[C@@H](C7=CC(=O)OC7)CC[C@]65O)C4)O[C@@H]3C)O[C@@H]2C)C[C@H](O)[C@@H]1O` [digoxin], the IC50 (IFNβ promoter) was 56.6 nM.
With `C[C@@H]1O[C@@H](O[C@H]2C[C@@H](O)[C@]3(CO)[C@H]4[C@H](O)C[C@]5(C)[C@@H](C6=CC(=O)OC6)CC[C@]5(O)[C@@H]4CC[C@]3(O)C2)[C@H](O)[C@H](O)[C@H]1O` [ouabain] the IC50 (IFNβ promoter; 293T cells, Sendai virus) was 64.8 nM.
In the case of `NC(=Nc1ccccc1)NC(=O)c1nc(Cl)c(N)nc1N` [phenamil], the “virus induced expression of the endogenous IFNβ gene” value (endogenous IFNβ gene) is reported as “less potent” and the “effect of ion-channel ligands on IFNβ reporter” value (IFNβ promoter) is reported as “consistently enhanced”.
For `CN[C@@H]1C[C@H]2O[C@@](C)([C@@H]1OC)n1c3ccccc3c3c4c(c5c6ccccc6n2c5c31)C(=O)NC4` [staurosporine], the “Percentile of Annexin V or 7-AAD positive populations” value (293T cells [2]) was 17.11, the “cleavage products of PARP1 and Caspase3 (indication of apoptosis)” value (293T cells [1]) was “induced” and the “induction of LC3B-II (marker of autophagy)” value (293T cells [1]) was “induced”.
